Laboratory results as given in patent US20110263693A1, “CELASTROL, GEDUNIN, AND DERIVATIVES THEREOF AS HSP90 INHIBITORS” (DANA-FARBER CANCER INSTITUTE, INC., priority 2006, published 2011).

Columns and labels:
[1] = system: EGFR; test: Western blot of HSP90 client EGFR level; assay type: cell-based, human; conditions: 24 hr, several cell lines, concentration-dependent
Method: (§1) To more broadly establish the effects of celastrol and gedunin on the HSP90 pathway, we tested whether these compounds decrease the protein levels of other HSP90 clients.
(§2) Celastrol (Calbiochem) and gedunin (Gaia Chemicals) were solubilized in DMSO. LNCaP.FGC cells (ATCC) were grown in RPMI 1640 (ATCC) with 10% FBS. Ba/F3 cells stably expressing human FLT3, EGFR, and BCR-ABL1 were grown in RPMI 1640, 10% FBS, and 2 ng/ml IL-3. SKBr3 cells were grown in a 1:1 DME:F12 plus 10% FBS.

[2] = system: androgen signaling signature in LNCaP cells; test: Synergy with HSP90 inhibitors on the androgen signaling signature (isobologram); assay type: cell-based; conditions: 24 hr, isobologram analysis
Text: If celastrol and gedunin act on HSP90 function via a distinct mechanism from HSP90 ATP-binding site inhibition (Bagatell et al., 2005), they might act synergistically with existing HSP90 inhibitors. We therefore tested the combinatorial effects of these compounds with HSP90 inhibitors on HSP90 client signaling and viability. […] Celastrol and gedunin therefore act synergistically with existing modes of HSP90 ATP-binding site inhibition to inhibit HSP90 client signaling and viability in a cellular context, consistent with their inhibition of HSP90 via a distinct mechanism.
Adherent cell growth was measured by luminescent assay of ATP level (CellTiterGlo, Promega). LNCaP cells were grown in charcoal-stripped media for 2 days prior to simultaneous treatment with 1 nM R1881 and the relevant compound. Synergy was assessed by analyzing the IC50 of one drug over a range of concentrations of the other drug and vice versa. The resulting concentration pairs were visualized by isobologram (Gessner, 1995). Anchorage independence was measured by soft agar assay (Hahn et al., 1999). Compounds were added to both agar layers. Colonies were scored after 3 weeks.

[3] = system: HSP90; test: HSP90 conformational change assay (bis-ANS); assay type: binding; conditions: purified HSP90 200 nM, bis-ANS 50 μM
Method: The final volume in each well was 100 μL. The plate was covered with foil and mixed for 30 s on a plate shaker before incubation for 60 min. at 37° C. Relative fluorescence units were measured using a SpectraMx Gemini XS spectrofluorometer (Molecular Devices Corporation, Sunnyvale, Calif.) at an excitation wavelength for bis-ANS of 393 nm and an emission wavelength of 484 nm. The data were acquired using the SOFTmaxPRO software (Molecular Devices Corporation, Sunnyvale, Calif.).

[4] = molecular target: HSP90α (Homo sapiens, UniProt P07900); test: HSP90 ATP-binding assay (ATP-polyacrylamide pulldown from lysates of treated cells); assay type: cell-based; parameters: endogenous in cells; host or cells: LNCaP and K562; conditions: LNCaP and K562 cells treated 24 hr
Method: Given their inhibition of HSP90 clients, we next asked whether celastrol and gedunin affect HSP90 activity itself. To assess the effects on HSP90 activity within a cellular context, we treated LNCaP and K562 cells with celastrol or gedunin for 24 hr and subsequently tested the cellular HSP90's ATP-binding activity. ATP-binding activity was assayed by ATP-polyacrylamide pulldown of HSP90 from cell lysates, followed by western blot-based quantification (Bali et al., 2005). This assay identifies HSP90 inhibition, both direct and indirect, that alters HSP90 ATP-binding activity in cell lines (Bali et al., 2005, Soti et al., 2002). […] The decrease in ATP binding by HSP90 cannot be accounted for by changes in HSP90 level (FIG. 7E). Celastrol and gedunin therefore inhibit HSP90 activity itself in a cellular context, either directly or indirectly.
The ATP-binding assay was similar to that in previous reports (Bali et al., 2005, Soti et al., 2002). LNCaP and K562 cells were treated with celastrol and gedunin for 24 hr and then lysed in TNESV buffer (50 mM Tris, 2 mM EDTA, […], 1 mM activated sodium orthovanadate, 25 mM NaF, 1% Triton X-100 [pH 7.5]) for 30 min at 4° C. Lysates were spun for 30 min at 12,000 rpm at 4° C. […]

[5] = system: androgen-responsive gene expression in LNCaP cells; test: Genome-wide gene expression profiling with hierarchical clustering of androgen-responsive genes; assay type: cell-based; conditions: androgen-stimulated LNCaP, celastrol 1.25 μM, gedunin 20 μM, 24 hr
Method: We next asked whether celastrol and gedunin inhibit the broader program of androgen signaling beyond the GE-HTS signature. To address this question, we compared the genome-wide gene expression profiles of androgen-stimulated LNCaP cells treated with celastrol (1.25 μM) and gedunin (20 μM) for 24 hr to those of androgen-stimulated and androgen-deprived cells.
The mRNA expression profiles of celastrol- and gedunin-treated cells were determined by Affymetrix U133A microarray analysis in triplicate. RNA was isolated by Trizol extraction from LNCaP cells treated with vehicle, 1.25 μM celastrol, or 20 μM gedunin (1) for 24 hr in RPMI, 10% charcoal-stripped FBS, and 1 nM R1881 or vehicle, following androgen deprivation in charcoal-stripped media for 2 days, and (2) for 6 hr in RPMI with 10% FBS. IVT, labeling, hybridization, and washing were carried out on the Affymetrix High-Throughput Array platform using HT_HG-U133A preproduction arrays (early access version; part number 520276) for all but the 24 hr gedunin samples. U133A version 2 arrays were used for the 24 hr gedunin samples for technical reasons. Raw data were processed by RMA. For hierarchical clustering, a 169 probe set of androgen-regulated genes was defined and used to perform average linkage clustering (see below). […]

[6] = system: BCR-ABL1; test: Western blot of HSP90 client BCR-ABL1 level; assay type: cell-based, human; conditions: for protein level of BCR-ABL1: 24 hr, several cell lines, concentration-dependent
Method: as §1, §2

[7] = system: rat models for Alzheimer's disease; conditions: 7 mg/kg daily; cited from earlier work

Row | Structure (SMILES) | protein level of EGFR [1] | combined effect with geldanamycin and 17-AAG on the androgen signaling signature [2] | inhibition of HSP90 conformational changes induced by bis-ANS [3] | ATP-binding activity of HSP90α [4] | broader program of androgen signaling (genome-wide expression, hierarchical clustering) [5] | protein level of BCR-ABL1 [6] | activity in rat models for Alzheimer's disease [7] | sensitivity of BCR-ABL T315I point mutant to inhibition ([6]; Ba/F3 cells, relative to non-mutant)
1 | CC1=C(O)C(=O)C=C2C1=CC=C1[C@@]2(C)CC[C@@]2(C)[C@@H]3C[C@](C)(C(=O)O)CC[C@]3(C)CC[C@]12C [celastrol] | lowered the protein levels | mild synergy | binds purified HSP90 in vitro | inhibited the ATP-binding activity | invoked a broader gene expression program similar to that induced by androgen deprivation | lowered the protein levels | activity | 
2 | CC(=O)O[C@@H]1C[C@H]2C(C)(C)C(=O)C=C[C@]2(C)[C@H]2CC[C@@]3(C)[C@H](c4ccoc4)OC(=O)[C@H]4O[C@]43[C@@]21C [gedunin] | lowered the protein levels | mild synergy | the effect is not well seen | inhibited the ATP-binding activity | invoked a broader gene expression program similar to that induced by androgen deprivation | lowered the protein levels |  | increased sensitivity
